From patent US20240140938A1, “PREPARATION OF TETRAHYDROINDAZOLE DERIVATIVES AS NOVEL DIACYLGLYCERIDE O-ACYLTRANSFERASE 2 INHIBITORS” (MERCK SHARP & DOHME LLC, priority 2020, published 2024)

Each molecule was assayed against human DGAT2 (hDGAT2) (Homo sapiens (Human), UniProt Q96PD7) (assay: DGAT2 Enzymatic Activity Assay). Conditions: hDGAT2 Sf-9 membrane prep; 13C18-triolein product by LC/MS/MS; 25 μM diolein, 5 μM 13C oleoyl-CoA.
human DGAT2 (hDGAT2), sequence (Q96PD7 whole entry): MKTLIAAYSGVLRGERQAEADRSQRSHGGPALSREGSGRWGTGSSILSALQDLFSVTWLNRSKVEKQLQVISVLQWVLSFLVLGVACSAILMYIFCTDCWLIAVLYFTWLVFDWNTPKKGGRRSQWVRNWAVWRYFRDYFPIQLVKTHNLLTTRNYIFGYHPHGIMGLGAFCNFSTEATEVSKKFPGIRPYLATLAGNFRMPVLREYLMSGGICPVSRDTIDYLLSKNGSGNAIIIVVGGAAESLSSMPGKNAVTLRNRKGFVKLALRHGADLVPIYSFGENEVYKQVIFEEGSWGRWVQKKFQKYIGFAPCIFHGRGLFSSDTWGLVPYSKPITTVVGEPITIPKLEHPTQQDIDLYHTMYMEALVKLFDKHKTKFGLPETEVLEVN
Type: biochemical
In short: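 Enzyme source was membrane fractions from Sf-9 cells infected with untagged hDGAT2 baculovirus. Reactions ran at room temperature, and product 13C18-triolein was quantified by LC/MS/MS against a 13C21-triolein internal standard. % inhibition was normalised to high and low controls, and IC50 derived from it.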
An IC50 of 51 nM was found for [2H]C([2H])([2H])C([2H])([2H])Oc1cc(-c2nn(C(C)C)c3c2CC[C@@H](C(=O)NC2(C)CCS(=O)(=O)CC2)C3)c(F)cn1 [Example 50, (R)-3-(2-(ethoxy-d5)-5-fluoropyridin-4-yl)-1-isopropyl-N-(4-methyl-1,1-dioxidotetrahydro-2H-thiopyran-4-yl)-4,5,6,7-tetrahydro-1H-indazole-6-carboxamide] in this work.
An IC50 of 4.3 nM was found for [2H]C([2H])([2H])C([2H])(n1nc(-c2cc(OC(F)F)ccc2F)c2c1C[C@H](C(=O)NC1(C#N)CCS(=O)(=O)CC1)CC2)C([2H])([2H])[2H] [Example 51, (R)-N-(4-cyano-1,1-dioxidotetrahydro-2H-thiopyran-4-yl)-3-(5-(difluoromethoxy)-2-fluorophenyl)-1-(propan-2-yl-d7)-4,5,6,7-tetrahydro-1H-indazole-6-carboxamide] in this work.
An IC50 of 4.7 nM was found for CC(C)n1nc(-c2cc(OC(F)F)ccc2F)c2c1C[C@H](C(=O)NC1(C#N)CCS(=O)(=O)CC1)CC2 [Example 52, (R)-N-(4-cyano-1,1-dioxidotetrahydro-2H-thiopyran-4-yl)-3-(5-(difluoromethoxy)-2-fluorophenyl)-1-isopropyl-4,5,6,7-tetrahydro-1H-indazole-6-carboxamide] in this work.
An IC50 of 1.8 nM was found for CCOc1ccc(F)c(-c2nn(C(C)C)c3c2CC[C@@H](C(=O)NC2(C)CCS(=O)(=O)CC2)C3)c1 [Example 54, (R)-3-(5-ethoxy-2-fluorophenyl)-1-isopropyl-N-(4-methyl-1,1-dioxidotetrahydro-2H-thiopyran-4-yl)-4,5,6,7-tetrahydro-1H-indazole-6-carboxamide] in this work.
An IC50 of 86.6 nM was found for CC(C)n1nc(-c2cccc(OC(F)(F)F)c2)c2c1C[C@H](C(=O)NC1(C)CCS(=O)(=O)CC1)CC2 [Example 55, (R)-1-isopropyl-N-(4-methyl-1,1-dioxidotetrahydro-2H-thiopyran-4-yl)-3-(3-(trifluoromethoxy)phenyl)-4,5,6,7-tetrahydro-1H-indazole-6-carboxamide] in this work.
An IC50 of 414 nM was found for CC(C)n1nc(-c2cncc(OC(F)F)c2)c2c1C[C@H](C(=O)NC1(C)CCS(=O)(=O)CC1)CC2 [Example 56, (R)-3-(5-(difluoromethoxy)pyridin-3-yl)-1-isopropyl-N-(4-methyl-1,1-dioxidotetrahydro-2H-thiopyran-4-yl)-4,5,6,7-tetrahydro-1H-indazole-6-carboxamide] in this work.
An IC50 of 22.8 nM was found for CC1(NC(=O)[C@@H]2CCc3c(-c4cc(OC(F)F)ccc4F)nn(C4CCC4)c3C2)CS(=O)(=O)C1 [Example 57, (R)-1-cyclobutyl-3-(5-(difluoromethoxy)-2-fluorophenyl)-N-(3-methyl-1,1-dioxidothietan-3-yl)-4,5,6,7-tetrahydro-1H-indazole-6-carboxamide] in this work.
An IC50 of 61 nM was found for CCOC(=O)N1CCC(C)(NC(=O)[C@@H]2CCc3c(-c4cc(OC(F)F)ccc4F)nn(C(C)C)c3C2)C1 (stereo partly drawn) [Example 59, ethyl 3-((R)-3-(5-(difluoromethoxy)-2-fluorophenyl)-1-isopropyl-4,5,6,7-tetrahydro-1H-indazole-6-carboxamido)-3-methylpyrrolidine-1-carboxylate] in this work.
An IC50 of 29.2 nM was found for CC(C)NC(=O)N1CCC(C)(NC(=O)[C@@H]2CCc3c(-c4cc(OC(F)F)ccc4F)nn(C(C)C)c3C2)C1 (stereo partly drawn) [Example 60, (6R)-3-(5-(difluoromethoxy)-2-fluorophenyl)-1-isopropyl-N-(1-(isopropylcarbamoyl)-3-methylpyrrolidin-3-yl)-4,5,6,7-tetrahydro-1H-indazole-6-carboxamide] in this work.
An IC50 of 26.2 nM was found for CC(C)n1nc(-c2cc(OC(F)F)ccc2F)c2c1C[C@H](C(=O)NC1(C)CCN(C(=O)C3CC3)C1)CC2 (stereo partly drawn) [Example 61, (6R)-N-(1-(cyclopropanecarbonyl)-3-methylpyrrolidin-3-yl)-3-(5-(difluoromethoxy)-2-fluorophenyl)-1-isopropyl-4,5,6,7-tetrahydro-1H-indazole-6-carboxamide] in this work.
An IC50 of 8190 nM was found for CC(C)n1nc(-c2cccc(OC(F)F)c2)c2c1C[C@H](C(=O)NCc1cccnc1)CC2 [Example 62, (R)-3-(3-(difluoromethoxy)phenyl)-1-isopropyl-N-(pyridin-3-ylmethyl)-4,5,6,7-tetrahydro-1H-indazole-6-carboxamide] in this work.
An IC50 of 4560 nM was found for CC(C)n1nc(-c2cccc(OC(F)F)c2)c2c1C[C@H](C(=O)NCc1cnoc1)CC2 [Example 63, (R)-3-(3-(difluoromethoxy)phenyl)-1-isopropyl-N-(isoxazol-4-ylmethyl)-4,5,6,7-tetrahydro-1H-indazole-6-carboxamide] in this work.
An IC50 of 622 nM was found for CC(C)N1CCC(NC(=O)[C@@H]2CCc3c(-c4cc(OC(F)F)ccc4F)nn(C(C)C)c3C2)C1=O (stereo partly drawn) [Example 64, (6R)-3-(5-(difluoromethoxy)-2-fluorophenyl)-1-isopropyl-N-(1-isopropyl-2-oxopyrrolidin-3-yl)-4,5,6,7-tetrahydro-1H-indazole-6-carboxamide] in this work.
An IC50 of 7260 nM was found for CC(C)n1nc(-c2cccc(OC(F)F)c2)c2c1C[C@H](C(=O)N[C@@H](C)CO)CC2 [Example 65, (R)-3-(3-(difluoromethoxy)phenyl)-N-((S)-1-hydroxypropan-2-yl)-1-isopropyl-4,5,6,7-tetrahydro-1H-indazole-6-carboxamide] in this work.
An IC50 of 1330 nM was found for COCC(C)(C)NC(=O)[C@@H]1CCc2c(-c3cccc(OC(F)F)c3)nn(C(C)C)c2C1 [Example 66, (R)-3-(3-(difluoromethoxy)phenyl)-1-isopropyl-N-(1-methoxy-2-methylpropan-2-yl)-4,5,6,7-tetrahydro-1H-indazole-6-carboxamide] in this work.
An IC50 greater than 10000 nM was found for Cc1nnc(NC(=O)[C@@H]2CCc3c(-c4cccc(OC(F)F)c4)nn(C4CCOCC4)c3C2)s1 [Example 67, (R)-3-(3-(difluoromethoxy)phenyl)-N-(5-methyl-1,3,4-thiadiazol-2-yl)-1-(tetrahydro-2H-pyran-4-yl)-4,5,6,7-tetrahydro-1H-indazole-6-carboxamide] in this work.
An IC50 greater than 10000 nM was found for CC(C)n1nc(-c2cncc(OC(F)F)c2)c2c1C[C@H](C(=O)N[C@@H](C)CN1CCO[C@H](C)C1)CC2 [Example 68, (R)-3-(5-(difluoromethoxy)pyridin-3-yl)-1-isopropyl-N-((S)-1-((R)-2-methylmorpholino)propan-2-yl)-4,5,6,7-tetrahydro-1H-indazole-6-carboxamide] in this work.
An IC50 of 90 nM was found for CCC1(NC(=O)[C@@H]2CCc3c(-c4cccc(OC(F)F)c4)nn(C(C)C)c3C2)CS(=O)(=O)C1 [Example 69, (R)-3-(3-(difluoromethoxy)phenyl)-N-(3-ethyl-1,1-dioxidothietan-3-yl)-1-isopropyl-4,5,6,7-tetrahydro-1H-indazole-6-carboxamide] in this work.
An IC50 of 18000 nM was found for CC(C)n1nc(-c2cccc(OC(F)F)c2)c2c1C[C@H](C(=O)NCCN1CCS(=O)(=O)CC1)CC2 [Example 70, (R)-3-(3-(difluoromethoxy)phenyl)-N-(2-(1,1-dioxidothiomorpholino)ethyl)-1-isopropyl-4,5,6,7-tetrahydro-1H-indazole-6-carboxamide] in this work.
An IC50 greater than 10000 nM was found for CNS(=O)(=O)CCNC(=O)[C@@H]1CCc2c(-c3cccc(OC(F)F)c3)nn(C(C)C)c2C1 [Example 71, (R)-3-(3-(difluoromethoxy)phenyl)-1-isopropyl-N-(2-(N-methylsulfamoyl)ethyl)-4,5,6,7-tetrahydro-1H-indazole-6-carboxamide] in this work.
An IC50 greater than 10000 nM was found for CC(=O)n1nc(-c2cccc(OC(F)F)c2)c2c1C[C@H](C(=O)N[C@@]1(C)CCS(=O)(=O)C1)CC2 [Example 73, (R)-1-acetyl-3-(3-(difluoromethoxy)phenyl)-N-((S)-3-methyl-1,1-dioxidotetrahydrothiophen-3-yl)-4,5,6,7-tetrahydro-1H-indazole-6-carboxamide] in this work.
An IC50 of 2910 nM was found for C[C@]1(NC(=O)[C@@H]2CCc3c(-c4cccc(OC(F)F)c4)nn(C(=O)C4CC4)c3C2)CCS(=O)(=O)C1 [Example 74, (R)-1-(cyclopropanecarbonyl)-3-(3-(difluoromethoxy)phenyl)-N-((S)-3-methyl-1,1-dioxidotetrahydrothiophen-3-yl)-4,5,6,7-tetrahydro-1H-indazole-6-carboxamide] in this work.
An IC50 greater than 10000 nM was found for C[C@]1(NC(=O)[C@@H]2CCc3c(-c4cccc(OC(F)F)c4)nn(C(=O)C4CCOCC4)c3C2)CCS(=O)(=O)C1 [Example 75, (R)-3-(3-(difluoromethoxy)phenyl)-N-((S)-3-methyl-1,1-dioxidotetrahydrothiophen-3-yl)-1-(tetrahydro-2H-pyran-4-carbonyl)-4,5,6,7-tetrahydro-1H-indazole-6-carboxamide] in this work.
An IC50 of 2740 nM was found for C[C@]1(NC(=O)[C@@H]2CCc3c(-c4cccc(OC(F)F)c4)nn(C(=O)c4ccccc4)c3C2)CCS(=O)(=O)C1 [Example 76, (R)-1-benzoyl-3-(3-(difluoromethoxy)phenyl)-N-((S)-3-methyl-1,1-dioxidotetrahydrothiophen-3-yl)-4,5,6,7-tetrahydro-1H-indazole-6-carboxamide] in this work.
An IC50 of 577 nM was found for C[C@]1(NC(=O)[C@@H]2CCc3c(-c4cccc(OC(F)F)c4)nn(Cc4ccccc4)c3C2)CCS(=O)(=O)C1 [Example 77, (R)-1-benzyl-3-(3-(difluoromethoxy)phenyl)-N-((S)-3-methyl-1,1-dioxidotetrahydrothiophen-3-yl)-4,5,6,7-tetrahydro-1H-indazole-6-carboxamide] in this work.
An IC50 greater than 10000 nM was found for C[C@]1(NC(=O)[C@@H]2CCc3c(-c4cccc(OC(F)F)c4)nn(CC4CCOCC4)c3C2)CCS(=O)(=O)C1 [Example 78, (R)-3-(3-(difluoromethoxy)phenyl)-N-((S)-3-methyl-1,1-dioxidotetrahydrothiophen-3-yl)-1-((tetrahydro-2H-pyran-4-yl)methyl)-4,5,6,7-tetrahydro-1H-indazole-6-carboxamide] in this work.
An IC50 of 59.1 nM was found for CC(C#N)n1nc(-c2cc(OC(F)F)ccc2F)c2c1C[C@H](C(=O)NC1(C)CS(=O)(=O)C1)CC2 (stereo partly drawn) [Example 79, (6R)-1-(1-cyanoethyl)-3-(5-(difluoromethoxy)-2-fluorophenyl)-N-(3-methyl-1,1-dioxidothietan-3-yl)-4,5,6,7-tetrahydro-1H-indazole-6-carboxamide] in this work.
